In US5200343A, “Method for microbial dehalogenation of haloaliphatic compounds using a sulfate reducing bacteria, desulfomonile tiedjei” (Board of Trustees operating Michigan State University, priority 1991, dated 1993):
Where two headings read alike, the source gives them in different places.

Assays:
[1] = test system: 3-Chlorobenzoate Dechlorination Activity; assay: Induction of 3-chlorobenzoate dechlorination activity by growth with 3-chlorobenzoate, analogues, or chloro- and iodobenzoates (Tables 4, 5); format: cell-based, Desulfomonile tiedjei
Method: Table 4. Cultures were grown in the presence of 3-chlorobenzoate or a 3-chlorobenzoate analogue substituted at the 1- or 3- position with the indicated functional groups. After several generations the culture were concentrated, washed and resuspended in anaerobic buffered salts containing 1 mM 3-chlorobenzoate and 10 mM pyruvate (as electron donor). […] After two hours samples were taken for benzoate analysis by HPLC. Values presented are the average of duplicate or triplicate cultures ± sample standard deviation.
Table 5. Chloro- and iodobenzoates were tested as inducers of 3-chlorobenzoate dehalogenation activity as described in the legend to Table 4. All compounds were initially at 500 μM; the 3-halo compounds were amended during growth as they were dehalogenated. Values presented are the average of duplicate or triplicate cultures± sample standard deviation.

[2] = test system: Desulfomonile tiedjei cells; assay: 3-chlorobenzoate dechlorination by starved stationary phase induced cells with or without pyruvate (Table 3); format: cell-based
Method: Cultures were grown using strict anaerobic technique in a synthetic minimal medium amended with vitamins (DeWeerd, et al, Arch. of Microbiol. 154, 23-30 (1990)), pyruvate at 20 mM, and reduced with 1 mM cysteine and 0.1 mM Na2 S2 O4. The concentration of nicotinamide and 1,4-naphthoquinone were 500 μgl^-1 and 200 μgl^-1, respectively. Thiamine, hemin and lipoic acid were used at 50 μg/liter. To induce 3-chlorobenzoate dechlorination activity, 3-fluorobenzoate was added to 0.1 mM. The complete medium was inoculated with a 1% transfer from homologous medium (without fluorobenzoate). […]
Cultures were harvested by centrifugation and resuspended in 20 to 40% of the initial volume in a cold anaerobic assay buffer normally consisting of 50 mM NaCl, 10 mM sodium pyruvate, 10 mM HEPES (N-2[hydroxyethylP]piperazine-N'-[2-ethanesulfonic acid], hemisodium salt Sigma);, 0.00001% resazurin and reduced with 1 mM cysteine-HCl and 1 mM titanium (III) citrate. […] The assays were terminated at the indicated times by transferring the serum bottles to an ice water bath, where they were stored until analyzed. Protein concentrations were determined by a modification of the Lowry method (Hanson, R. S. and J. A. Phillips, In P. Gerhardt (ed.) Manual of methods for general microbiology. American Society for Microbiology, Washington, D. C. p. 328-364 (1981)). […]

[3] = test system: Desulfomonile tiedjei cells; assay: PCE and TCE dechlorination by resuspended cells induced with 3-fluorobenzoate versus non-induced cells (Table 1, FIG. 1); format: cell-based; conditions: for Mole % recovered, PCE / Mole % recovered, TCE / Mole % recovered, cis-DCE / Total Cl Removed: 2 μg/ml substrate, 37° C., 2 hr; for Mole % recovered, PCE / Mole % recovered, TCE / Mole % recovered, cis-DCE: average of duplicate vials; for Total Cl Removed: calculated from input concentration and Mole % recovered
Method: (§1) Cultures were grown using strict anaerobic technique in a synthetic minimal medium amended with vitamins (DeWeerd, et al, Arch. of Microbiol. 154, 23-30 (1990)), pyruvate at 20 mM, and reduced with 1 mM cysteine and 0.1 mM Na2 S2 O4. The concentration of nicotinamide and 1,4-naphthoquinone were 500 μgl^-1 and 200 μgl^-1, respectively. Thiamine, hemin and lipoic acid were used at 50 μg/liter. To induce 3-chlorobenzoate dechlorination activity, 3-fluorobenzoate was added to 0.1 mM. The complete medium was inoculated with a 1% transfer from homologous medium (without fluorobenzoate). Cultures were grown at 37° C. in the dark for about 14 days for fresh cells or 28 days for starved stationary phase cells.
(§2) Cultures were harvested by centrifugation and resuspended in 20 to 40% of the initial volume in a cold anaerobic assay buffer normally consisting of 50 mM NaCl, 10 mM sodium pyruvate, 10 mM HEPES (N-2[hydroxyethylP]piperazine-N'-[2-ethanesulfonic acid], hemisodium salt Sigma);, 0.00001% resazurin and reduced with 1 mM cysteine-HCl and 1 mM titanium (III) citrate. Resuspended cells were used to completely fill N2 sparged 10 ml serum bottles after which chlorinated ethylenes were added from a 0.5 or 1 mg/ml stock in methanol for PCE and TCE respectively. The vials were immediately sealed with Teflon lined rubber septa and aluminum crimp seals, leaving no headspace. The assays were commenced by transferring the serum bottles to a 37° C. water bath. The assays were terminated at the indicated times by transferring the serum bottles to an ice water bath, where they were stored until analyzed. Protein concentrations were determined by a modification of the Lowry method (Hanson, R. S. and J. A. Phillips, In P. Gerhardt (ed.) Manual of methods for general microbiology. American Society for Microbiology, Washington, D. C. p. 328-364 (1981)).
(§3) Chlorinated ethylenes were monitored with a Tekmar purge and trap unit (model 4000) connected to a Hewlett-Packard GC (Sunnyville, Calif.) equipped with an HP-5 cappillary column (30 m×0.53 mm×2.6 μm film thickness) and flame ionization detector. Samples (5 ml) were purged onto Tenax TA (Supelco, Bellefonte, Pa.) adsorbent with helium (30 ml/min for 16 min.), desorbed (180° C. for 4 min.), and separated using helium as a carrier at 6 ml/min. The temperature program was 30° C. for 8 min, increasing to 200° C. at 4° C./min and followed by an isothermal period of 5 min. The injection and detector temperatures were 220° C. and 300° C., respectively. PCE and its dechlorinated products were identified by comparison with authentic standards.
To further examine the transformation of both PCE and TCE and to determine if dechlorination of TCE also requires induction, a similar experiment was conducted to measure the initial transformation rates of PCE and TCE (Table 1.). […] The extent of transformation of PCE to TCE ([…] in 2H) was considerably faster than the rate of transformation of TCE to DCE ([…] in 2h), as expected from the redox potentials of these reactions (Vogel, T. M., et al., Environ. Sci. Technol. 21:722-736 (1987)) and results from mixed culture systems (Bouwer, E. J., and P. L. McCarty, Appl. Environ. Microbiol. 45:1286-1294 (1983)). The rate of transformation of PCE and TCE were much greater for the induced cultures than for the non-induced cultures.
^a suspensions were amended with PCE or TCE to a final concentration
of 2 μg/ml and incubated at 37° C. for 2 hr. Suspensions of
induced and uninduced cells contained 149 and 153 μg protein per ml
^b Data are presented as the average of duplicate vials with the
sample standard deviation in parenthesis.
^c Calculated from the input concentration of chlorinated ethylenes
and the Mole % of recovered material.

Desulfomonile tiedjei = conditions: cited from earlier work
[4] = test system: Desulfomonile tiedjei cells; assay: Effect of different medium reductants and sterilant on PCE dechlorination by induced cells (Table 2); format: cell-based; conditions: PCE 1.66 μg/ml, 37° C., 2 hours
Method: as §1, with “The” for “Cultures were grown using strict anaerobic technique in a synthetic minimal medium amended with vitamins (DeWeerd, et al, Arch. of Microbiol. 154, 23-30 (1990)), pyruvate at 20 mM, and reduced with 1 mM cysteine and 0.1 mM Na2 S2 O4. The”
as §2, with “analyzed.” for “analyzed. Protein concentrations were determined by a modification of the Lowry method (Hanson, R. S. and J. A. Phillips, In P. Gerhardt (ed.) Manual of methods for general microbiology. American Society for Microbiology, Washington, D. C. p. 328-364 (1981)).”
as §3
Data are the average of duplicate vials and […]

[5] = test system: Desulfomonile tiedjei cells; assay: PCE dechlorination by starved stationary phase induced cells with or without pyruvate (Table 3); format: cell-based; conditions: for Mole % recovered, PCE / Mole % recovered, TCE / Mole % recovered, cis-DCE / Mole % recovered, trans-DCE / Total Cl Removed: PCE 1.66 μg/ml, 37° C., 2 hours
Method: as §1, §2, §3
^a Starved stationary phase induced cultures were resuspended at a
concentration of 521 μg protein per ml in buffer without pyruvate,
amended with PCE to a final concentration of 1.66 μg/ml and incubated
at 37° C. for 2 hours. Data are the average of duplicate vials and
^b 0.1 mMole sodium pyruvate was added to duplicate vials before
addition of cell suspensions to give a final concentration of ca. 10 mM

Structure (SMILES): O=C(O)c1cccc(Cl)c1 [3-chlorobenzoate]
- Induction Activity (3-chlorobenzoate dechlorination activity) ([1]; Table 4, inducers at 500 μM except 3-formylbenzoate 100 μM and 3-chlorobenzoate (amended at intervals), assay 1 mM 3-chlorobenzoate, two hours): 672 ± 8 nMol/hr/mg protein
- Induction Activity (3-chlorobenzoate dechlorination activity) ([1]; Table 5, inducers initially 500 μM, 3-halo compounds amended during growth): 672 ± 8 nMol/hr/mg protein
- 3-chlorobenzoate dechlorination in absence of pyruvate relative to presence of pyruvate [2]: about 12%

Structure (SMILES): ClC(Cl)=C(Cl)Cl [PCE, tetrachloroethylene]
- product formation from PCE or TCE ([3]; Only cultures pre-induced with 3-fluorobenzoate): measurable product formation
- transformation of PCE to TCE and cis-DCE (FIG. 1) ([3]; cells grown with 0.1 mM 3-fluorobenzoate): Rapid transformation
- Mole % recovered, PCE ([3]; induced (+)): 45.7 Mole %
- Mole % recovered, TCE ([3]; induced (+)): 54.3 Mole %
- Mole % recovered, cis-DCE ([3]; induced (+)): 0.0 Mole %
- Total Cl Removed ([3]; induced (+)): 43.9 μmol/g prot. in 2 h
- formation of trans-DCE from PCE ([3]; induced cells, longer time course): formation of small amounts of trans-DCE
- Mole % recovered, PCE ([3]; non-induced (-)): 100.0 Mole %
- Mole % recovered, TCE ([3]; non-induced (-)): 0.0 Mole %
- Mole % recovered, cis-DCE ([3]; non-induced (-)): 0.0 Mole %
- Total Cl Removed ([3]; non-induced (-)): 0.0 μmol/g prot. in 2 h
- extent of transformation of PCE to TCE ([3]; pre-induced with 3-fluorobenzoate): 43.8 mol g protein ^-1 in 2H
- dechlorination of PCE (FIG. 1) ([3]; uninduced cells): no dechlorination was detected
- Dechlorination of PCE by D. tiedjei (Desulfomonile tiedjei; Fathepure et al.): 2.34 μmolg protein^-1 day^-1
- Dechlorination of PCE by D. tiedjei (Desulfomonile tiedjei; Suflita et al.): 4 μmol/l in five (5) months
- Mole % recovered, PCE ([4]; Formaldehyde + (0.2%)): 95.0 Mole %
- Mole % recovered, TCE ([4]; Formaldehyde + (0.2%)): 5.0 Mole %
- Mole % recovered, cis-DCE ([4]; Formaldehyde + (0.2%)): 0.0 Mole %
- Mole % recovered, trans-DCE ([4]; Formaldehyde + (0.2%)): 0.0 Mole %
- Total Cl Removed ([4]; Formaldehyde + (0.2%)): 1.0 μmol/g prot. in 2 h
- Mole % recovered, PCE ([4]; Formaldehyde -): 0.0 Mole %
- Mole % recovered, TCE ([4]; Formaldehyde -): 26.4 Mole %
- Mole % recovered, cis-DCE ([4]; Formaldehyde -): 69.4 Mole %
- Mole % recovered, trans-DCE ([4]; Formaldehyde -): 4.2 Mole %
- Total Cl Removed ([4]; Formaldehyde -): 34.1 μmol/g prot. in 2 h
- Mole % recovered, PCE ([4]; reductant Na2 S (1 mM)): 6.3 Mole %
- Mole % recovered, TCE ([4]; reductant Na2 S (1 mM)): 18.6 Mole %
- Mole % recovered, cis-DCE ([4]; reductant Na2 S (1 mM)): 70.7 Mole %
- Mole % recovered, trans-DCE ([4]; reductant Na2 S (1 mM)): 4.4 Mole %
- Total Cl Removed ([4]; reductant Na2 S (1 mM)): 45.4 μmol/g prot. in 2 h
- Mole % recovered, PCE ([4]; reductant TiCit): 0.0 Mole %
- Mole % recovered, TCE ([4]; reductant TiCit): 9.4 Mole %
- Mole % recovered, cis-DCE ([4]; reductant TiCit): 85.8 Mole %
- Mole % recovered, trans-DCE ([4]; reductant TiCit): 4.7 Mole %
- Total Cl Removed ([4]; reductant TiCit): 50.0 μmol/g prot. in 2 h
- Mole % recovered, PCE ([5]; pyruvate + (ca. 10 mM)): 2.1 Mole %
- Mole % recovered, TCE ([5]; pyruvate + (ca. 10 mM)): 44.1 Mole %
- Mole % recovered, cis-DCE ([5]; pyruvate + (ca. 10 mM)): 50.3 Mole %
- Mole % recovered, trans-DCE ([5]; pyruvate + (ca. 10 mM)): 3.5 Mole %
- Total Cl Removed ([5]; pyruvate + (ca. 10 mM)): 29.1 (0.8) μmol/g prot. in 2 h
- Mole % recovered, PCE ([5]; pyruvate -): 78.6 Mole %
- Mole % recovered, TCE ([5]; pyruvate -): 21.4 Mole %
- Mole % recovered, cis-DCE ([5]; pyruvate -): 0.0 Mole %
- Mole % recovered, trans-DCE ([5]; pyruvate -): 0.0 Mole %
- Total Cl Removed ([5]; pyruvate -): 4.1 (0.3) μmol/g prot. in 2 h
- PCE dechlorination in absence of pyruvate relative to presence of pyruvate ([5]; starved stationary phase cells): about 14%
